According to paper PMC7988496, “Sphingomyelin synthase-related protein generates diacylglycerol via the hydrolysis of glycerophospholipids in the absence of ceramide” (The Journal of Biological Chemistry, 2021):

Key:
SMSr-V5 = target: T1, SMSr-V5 (Homo sapiens, UniProt Q96LT4); assay: anti-V5 immunoprecipitate, […]:1-DG quantified by LC-MS/MS; type: biochemical
T1 construct: gene SAMD8
T1 sequence (Q96LT4 1-415): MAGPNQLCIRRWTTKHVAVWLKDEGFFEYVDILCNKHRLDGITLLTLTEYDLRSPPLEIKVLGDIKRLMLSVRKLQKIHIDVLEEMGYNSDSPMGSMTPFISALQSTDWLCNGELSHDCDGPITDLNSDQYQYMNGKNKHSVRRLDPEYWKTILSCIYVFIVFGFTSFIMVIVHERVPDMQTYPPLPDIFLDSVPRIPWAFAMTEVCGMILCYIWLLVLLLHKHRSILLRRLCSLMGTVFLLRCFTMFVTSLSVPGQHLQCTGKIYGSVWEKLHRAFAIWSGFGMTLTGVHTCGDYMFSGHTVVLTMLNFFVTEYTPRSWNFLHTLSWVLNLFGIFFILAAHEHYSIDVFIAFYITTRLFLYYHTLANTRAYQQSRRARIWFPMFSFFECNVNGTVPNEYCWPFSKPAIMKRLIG

[1] = substrate: CCCCCCCC/C=C\CCCCCCCC(=O)O[C@H](COC(=O)CCCCCCCCCCCCCCC)COP(=O)(O)O; assay: DDM/CHS mixed micellar assay, DG quantified by LC-MS/MS; type: biochemical, Homo sapiens; details: PAP activity, no ceramide, pH 7.4, 37 °C, 2 h, 0.1% DDM, 0.02% CHS, surface-dilution Km also printed as 3.92 ± 0.536 mol%
From the text: DDM/CHS mixed micellar assay, DG quantified by LC-MS/MS on 6× His-SMSr-ΔSAMD

CCCCCCCC/C=C\CCCCCCCC(=O)O[C@H](COC(=O)CCCCCCCCCCCCCCC)COP(=O)(O)O [16:0/18:1-PA, 1-palmitoyl-2-oleoyl (16:0/18:1)-PA]
anti-V5 immunoprecipitate, 16:0/18:1-DG quantified by LC-MS/MS (SMSr-V5; PAP activity): The SMSr expressed in the COS-7 cells exhibited PAP and PI-PLC activities

CCCCCCCC/C=C\CCCCCCCC(=O)O[C@H](COC(=O)CCCCCCCCCCCCCCC)COP(=O)(O)O[C@@H]1[C@H](O)[C@H](O)[C@@H](O)[C@H](O)[C@H]1O [16:0/18:1-PI, 1-palmitoyl-2-oleoyl-sn-glycero-3-phosphoinositol]
anti-V5 immunoprecipitate, 16:0/18:1-DG quantified by LC-MS/MS (SMSr-V5; PI-PLC activity): The SMSr expressed in the COS-7 cells exhibited PAP and PI-PLC activities

B1: 6× His-SMSr-ΔSAMD (Homo sapiens) (protein)
chain: HIDVLEEMGYNSDSPMGSMTPFISALQSTDWLCNGELSHDCDGPITDLNSDQYQYMNGKNKHSVRRLDPEYWKTILSCIYVFIVFGFTSFIMVIVHERVPDMQTYPPLPDIFLDSVPRIPWAFAMTEVCGMILCYIWLLVLLLHKHRSILLRRLCSLMGTVFLLRCFTMFVTSLSVPGQHLQCTGKIYGSVWEKLHRAFAIWSGFGMTLTGVHTCGDYMFSGHTVVLTMLNFFVTEYTPRSWNFLHTLSWVLNLFGIFFILAAHEHYSIDVFIAFYITTRLFLYYHTLANTRAYQQSRRARIWFPMFSFFECNVNGTVPNEYCWPFSKPAIMKRL
Km [1]: 97.4 ± 13.3 µM
